Data on 3 molecules can be found in patent US20240285634A1, “COMPOUND AND METHOD FOR TREATING CHEMOTHERAPY-ASSOCIATED GASTROINTESTINAL SIDE EFFECTS” (ONQUALITY PHARMACEUTICALS CHINA LTD., priority 2021, published 2024).

Experiment [1] deals with Balb/c mice, diarrhea caused by continuous administration of a chemotherapeutic agent. Briefly: Relieving effect on diarrhea caused by the continuous administration of a chemotherapeutic agent (Examples 365-384). The settings on record: for Relative remission rate (%): for 3 days, cycle 8 days. Format: in vivo. The source says: Balb/c mice were fed for 1 week, and then divided into groups. The experiment was divided into a control group, a chemotherapeutic agent group, and a group of the compound as shown in Formula I, each of which comprised 10 mice, to perform the administration experiment, for which the administration dosage, mode, time and frequency were shown in Table 5. The control group: being injected or intragastrically administered with the same solvent as that used in the group of the compound as shown in Formula I (the administration mode and time were shown in Table 5), and then being injected or intragastrically administered with the same solvent as that used in the chemotherapeutic agent group (the administration mode was shown in Table 5); the chemotherapeutic agent group: being injected or intragastrically administered with the same solvent as that used in the group of the compound as shown in Formula I (the administration mode and time were shown in Table 5), and then being injected or intragastrically administered with the chemotherapeutic agent (the type, administration mode, time and dosage were shown in Table 5); the group of the compound as shown in Formula I: being injected or intragastrically administered with the compound as shown in Formula I (the administration mode and time were shown in Table 5), and then being administered with the chemotherapeutic agent (the type, administration mode, time and dosage were shown in Table 5).
The scoring of diarrhea can refer to the method of Akinobu Kurita (Cancer Chemother Pharmacol 2000; 46:211-20.), Grade 0): normal feces; Grade 1: mild diarrhea, the stools is slightly wet and soft; Grade 2: moderate diarrhea, loose stools and mild perianal contamination; Grade 3: severe diarrhea, watery stools and accompanied by severe perianal staining (see FIG. 1). It is regarded as effective remission when the diarrhea grading of mice in the group of the compound as shown in Formula I is reduced compared with the average diarrhea grading of mice in the chemotherapeutic agent group.
The diarrhea grading of mice was observed and recorded every day. At the end of the experiment, the number of mice in the group of the compound as shown in Formula I whose diarrhea grading was lower than that of mice in the chemotherapeutic agent group was recorded. Table 5 lists various animal experiment combinations of chemotherapeutic agents and the compound as shown in Formula I, as well as the corresponding experimental results. (Relative remission rate %=the number of mice in the group of the compound as shown in Formula I whose diarrhea has been effectively relieved/the total number of mice in the group of the compound as shown in Formula I*100%. The establishment rate of diarrhea model in the chemotherapeutic agent group was 50%-80%, that is, about 5-8 of 10 mice developed diarrhea during the experiment, and there were cases of individual mice death or not developing diarrhea.)

Experiment [2] deals with Balb/c mice, constipation caused by continuous administration of a chemotherapeutic agent. The experiment in a line: Relieving effect on constipation caused by the continuous administration of a chemotherapeutic agent (Examples 385-405). The settings on record: for Relative remission rate (%): Fluorouracil (5-Fu) 100 mg/kg intraperitoneal injection once a day for 3 days, experimental cycle 7 days. Format: in vivo. The source says:
Balb/c mice were fed for 1 week, and then divided into groups. The experiment was divided into a control group, a chemotherapeutic agent group, and a group of the compound as shown in Formula I, each of which comprised 10 mice, to perform the administration experiment, for which the administration dosage, mode, time and frequency were shown in Table 6. The control group: being injected or intragastrically administered with the same solvent as that used in the group of the compound as shown in Formula I (the administration mode and time were shown in Table 6), and then being injected or intragastrically administered with the same solvent as that used in the group of the compound as shown in Formula I (the administration mode was shown in Table 6); the chemotherapeutic agent group: being injected or intragastrically administered with the same solvent as that used in the group of the compound as shown in Formula I (the administration mode and time were shown in Table 6), and then being injected or intragastrically administered with the chemotherapeutic agent (the type, administration mode, time and dosage were shown in Table 6); the group of the compound as shown in Formula I: being injected or intragastrically administered with the compound as shown in Formula I (the administration mode and time were shown in Table 6), and then being administered with the chemotherapeutic agent (the type, administration mode, time and dosage were shown in Table 6).
The feces reduction rate was calculated with reference to the method of Ji Eun Kim (Lab Anim Res. 2016 December; 32(4): 231-240.). Feces reduction rate (%)=(the control group−the chemotherapeutic agent group or the group of the compound as shown in Formula I)/the control group*100%
It is regarded as effective remission when the feces reduction rate of mice in the group of the compound as shown in Formula I is reduced compared with that in the chemotherapeutic agent group.
The feces amount of mice within 3 hours was observed and recorded every day. At the end of the experiment, the number of mice in the group of the compound as shown in Formula I whose feces reduction rate was lower than that of mice in the chemotherapeutic agent group was recorded. Table 6 lists various animal experiment combinations of chemotherapeutic agents and the compound as shown in Formula I, as well as the corresponding experimental results.

[3] abbreviates: continuous administration of the chemotherapeutic agent for 7 days or less.
Where [4] appears, read: continuous administration of the chemotherapeutic agent for less than 7 days.
The mark [5] stands for this setting: continuous administration of fluorouracil for less than 7 days.

On to `O=C1NCC2(CCCCC2)n2c1cc1cnc(Nc3ccc(N4CCC(N5CCOCC5)CC4)cn3)nc12` [Compound III], for which the “Relative remission rate (%)” value in experiment [1] (Example 382, Fluorouracil (5-Fu) intravenous injection 70 mg/kg once a day, compound subcutaneous injection 100 mg/kg once a day, 12 h before chemotherapeutic agent) is 20%; in experiment [2] (Example 398, compound 100 mg/kg intravenous injection once a day for 3 days, 2 h before the chemotherapeutic agent) it was 40%. Moreover, the “relieving effects on diarrhea” value in experiment [1] (setting [3]) is given as “have relieving effects”; in experiment [1] (setting [4]), “significant”. Moreover, the “relieving effects on constipation” value is given as “significant relieving effects” in experiment [2] (setting [5]) and “have relieving effects” in experiment [2] (setting [3]).
With `O=C1NCC2(CCCCC2)n2c1cc1cnc(Nc3ccc(N4CCNCC4)cn3)nc12` [Compound II], the “Relative remission rate (%)” value came to 40% in experiment [1] (Example 381, Fluorouracil (5-Fu) intravenous injection 70 mg/kg once a day, compound intramuscular injection 100 mg/kg once a day, 0.5 h before chemotherapeutic agent) and 20% in experiment [2] (Example 397, compound 100 mg/kg intraperitoneal injection once a day for 3 days, 0.5 h before the chemotherapeutic agent). The “relieving effects on diarrhea” value is reported as “have relieving effects” in experiment [1] (setting [3]) and “significant” in experiment [1] (setting [4]). Further, the “relieving effects on constipation” value was “significant relieving effects” in experiment [2] (setting [5]) and “have relieving effects” in experiment [2] (setting [3]).
With `CC(C)N1CCN(c2ccc(Nc3ncc4cc5n(c4n3)C3(CCCCC3)CNC5=O)nc2)CC1` [Compound IV, Lerociclib], the “Relative remission rate (%)” value in experiment [1] (Example 380, Fluorouracil (5-Fu) intraperitoneal injection 70 mg/kg once a day, compound oral administration 100 mg/kg once a day, 4 h before chemotherapeutic agent) is listed as 30%; in experiment [2] (Example 399, compound 100 mg/kg oral administration once a day for 3 days, 4 h before the chemotherapeutic agent), 50%. Also, the figures for the “relieving effects on diarrhea” value in experiment [1] (setting [3]) and in experiment [1] (setting [4]) were “have relieving effects” and “significant”, respectively. Further, the results for the “relieving effects on constipation” value in experiment [2] (setting [5]) and in experiment [2] (setting [3]) were “significant relieving effects” and “have relieving effects”, respectively.
